# From US20250019341A1, “COMPOUNDS AND METHOD OF USE THEREOF FOR TREATING BACTERIAL DISEASES” (PEKING UNIVERSITY, priority 2021, published 2025)
# Where two headings read alike, the source gives them in different places.
# How the values were obtained:
# [1] = system: P. syringae TTSS secretion (AvrPto, Pst DC3000); settings: for inhibition of AvrPto secretion in Pst DC3000: supernatant protein, indicated concentrations or dilutions; for inhibition of AvrPto secretion in Pst DC3000 / abundance of AvrPto in total protein (bacteria): immunoblot; for abundance of AvrPto in total protein (bacteria): total / intracellular protein
# [2] = system: Pst DC3000 TTSS gene transcription (avrPto, hrpL)
# R. solanacearum = format: in vivo, tomato; settings: 1 mM, soil drenching, versus solvent
# [3] = system: Pst DC3000 TTSS injectisome (Hrp pilus) assembly; format: cell-based, P. syringae; settings: 0.2 mM, TEM
# Pst DC3000 = assay: Growth curve of Pst DC3000 in KB medium; format: cell-based, P. syringae; settings: 150 μM
# Pst DC3000 hrcQ mutant = assay: Bacterial growth assay on N. benthamiana leaves; format: in vivo; settings: 150 μM
# [4] = system: Xanthomonas oryzae pv. oryzae (Xoo) isolate P6; format: in vivo, rice; settings: 1 mM, Xoo P6, leaf clipping, 12 days after inoculation, versus solvent
# [5] = system: Pst T1 effector AvrPto secretion; assay: AvrPto secretion of Pst T1 (immunoblot); format: cell-based; settings: 24 h incubation, versus untreated bacteria
# [6] = system: Pst DC3000 injectisome structural proteins (HrpA, HrcQb); assay: Injectisome structural proteins in cellular and membrane fractions (quantitative proteomics, immunoblot); format: cell-based, P. syringae; settings: 0.2 mM
# Protocol: To isolate the membrane fraction, bacterial cells were harvested, washed with 10 mM Tris-HCl at pH 8.0, centrifuged and the supernatants were carefully discarded. The cell pellets were then resuspended in spheroplast buffer (20 mM Tris pH 8.0, 20% sucrose, 1 mM Na-EDTA), incubated for 10 min and centrifuged. The pellets were then resuspended in ice hypotonic solution (sterile water) and the sample were incubated for 10 min on ice. After centrifugation, the resulting pellets were resuspended in 10 mM Tris-HCl at pH 8.0 and sonicated. After centrifugation, the supernatants were carefully transferred to new tubes and centrifuged again for 40 min. The pellets were washed by sterile water and centrifuged for another 40 min. The pellets were resuspended in water as membrane proteins.
# [7] = system: S. typhimurium effector SopF secretion; assay: SopF protein accumulation and secretion of Salmonella Typhimurium (immunoblot); format: cell-based, Salmonella Typhimurium 14028S; settings: 24 h incubation, versus untreated bacteria
# Protocol: To determine SopF protein accumulation and secretion, Salmonella Typhimurium 14028S expressing His-tagged SopF was cultivated at 37° C. in LB medium and then subcultured (1:100) in fresh 30 mL LB medium with erucamide or solvent to an OD600 of 0.2. After induction with 0.5 mM IPTG, whole cells and culture supernatants were separated by centrifugation at 5000 RPM for 10 min. The pellet was resuspended by PBS as cytoplasmic protein sample. The supernatants were filtered (0.22 μm pore-size) and then precipitated by adding trichloroacetic acid at a final concentration of 10% v/v, followed by incubation at 4° C. overnight and centrifugation (20000 g, 4° C., 30 min). The pellet was washed twice by cold acetone and analyzed by immunoblot using anti-His antibodies. For control, anti-DnaK antibodies were used.
# P. actinidiae = assay: Bacterial canker of kiwifruit, leaf inoculation; format: in vivo; settings: 1 mM, sprayed with bacteria on leaves
# [8] = system: Xcc8004 effector AvrAc secretion; assay: AvrAC protein accumulation and secretion of Xcc8004 (immunoblot); format: cell-based; settings: 24 h incubation, versus untreated bacteria
# Protocol: To determine AvrAC protein accumulation and secretion, Xcc8004 strain expressing HA-tagged AvrAC was cultivated at 28° C. in NYG rich medium (3 g/L yeast extract, 5 g/L peptone, 20 g/L glycerol, pH 7.0). […] Total and supernatants protein were analyzed by immunoblot by indicated antibodies.
smiles,measurement,setting,value
CCCCCCCCCCCCCC(N)=O [Compound T3SI-25],inhibition of AvrPto secretion in Pst DC3000,[1],effectively inhibited
CCCCCCCCCCCCCCCC(N)=O [Compound T3SI-9],inhibition of AvrPto secretion in Pst DC3000,[1],effectively inhibited
CCCCCC/C=C\CCCC(N)=O [Compound T3SI-29],abundance of AvrPto in total protein (bacteria),[1],decrease
"C[S+]([O-])CCCCN=C=S (stereo not shown) [SFN, reference compound]",P. syringae TTSS gene expression,[2],preferentially inhibits
"CCCCCCCCc1ccccc1CCCCCCCCCCCC(N)=O [Compound T3SI-21, 12-(2-octylphenyl)dodecanamide]",abundance of AvrPto in total protein (bacteria),[1],decrease
"CCCCCCCCCCCCCCCC(=O)NCCO [Compound T3SI-19, N-(2-hydroxyethyl)-Hexadecanamide]",inhibition of AvrPto secretion in Pst DC3000,[1],effectively inhibited
"CCCCCCCC/C=C\CCCCCCCCCCCC(N)=O (single isomer, unassigned) [Compound T3SI-1, erucamide]",disease symptoms / virulence of R. solanacearum on tomato,R. solanacearum; listed as Erucamide,decreased the virulence
same,disease symptoms / virulence of R. solanacearum on tomato,R. solanacearum; listed as erucamide,significantly decreased disease symptoms
same,transcription activity of TTSS genes avrPto and hrpL and house-keeping gene trp,"[2]; Pst DC3000 reporter genes, luciferase activity",does not inhibit
same,flagella production,[3],slightly blocked
same,Hrp pilus (TTSS injectisome) assembly,[3]; listed as Erucamide,inhibited
same,Hrp pilus (TTSS injectisome) assembly,[3]; listed as erucamide,significantly inhibited
same,bacteria that had Hrp pilus,[3]; erucamide treatment group,3.3%
same,bacteria that had flagella,[3]; erucamide treatment group,56.7%
same,growth of Pst DC3000,Pst DC3000; listed as Erucamide,does not affect
same,growth of Pst DC3000,Pst DC3000; listed as erucamide,no effect
same,Pst DC3000 hrcQ growth on N. benthamiana,Pst DC3000 hrcQ mutant,inhibited
same,"bacteria population in treated plants, less than in untreated plants","Pst DC3000 hrcQ mutant; N. benthamiana leaves, 3 days after inoculation",5 fold
same,rice bacterial blight lesion length,[4]; listed as Erucamide,protective effects
same,rice bacterial blight lesion length,[4]; listed as erucamide,significantly shorter
same,secretion of AvrPto in Pst T1,[5]; listed as Erucamide,inhibits
same,secretion of AvrPto in Pst T1,[5]; listed as erucamide,significantly lower
same,HrpA and HrcQb accumulation in membrane,[6]; immunoblot,inhibited
same,levels of HrpA and HrcQb in cellular protein,[6]; immunoblot,did not change
same,amount of injectisome structure proteins in total protein,[6]; quantitative proteomics,not altered
same,injectisome structure protein accumulation in membrane,[6]; quantitative proteomics,reduced
same,secretion of SopF in S. typhimurium,[7]; listed as Erucamide,inhibits
same,secretion of SopF in S. typhimurium,[7]; listed as erucamide,significantly lower
same,disease symptoms caused by P. actinidiae on kiwifruit leaves,P. actinidiae; listed as Erucamide,decreased the disease symptoms
same,disease symptoms caused by P. actinidiae on kiwifruit leaves,P. actinidiae; listed as erucamide,significantly decrease the disease symptoms
same,concentration at which inhibition of AvrPto secretion was observed,[1]; Pst DC3000,6 µM
same,inhibition of AvrPto secretion in Pst DC3000,[1],effectively inhibited
same,inhibition of AvrPto secretion in Pst DC3000,[1]; listed as Erucamide,inhibits
same,inhibition of AvrPto secretion in Pst DC3000,[1]; listed as erucamide,gradually decreased with increasing concentration
same,inhibition of AvrPto secretion in Pst DC3000,[1]; listed as fraction 9,high activity
same,secretion of AvrAc in Xcc8004,[8]; listed as Erucamide,inhibits
same,secretion of AvrAc in Xcc8004,[8]; listed as erucamide,significantly lower
CCCCCCCCCCCCCCCCCCCCCC(N)=O [Compound T3SI-7],inhibition of AvrPto secretion in Pst DC3000,[1],effectively inhibited
CCCCCCCC/C=C\CCCCCCCC(N)=O [Compound T3SI-5],abundance of AvrPto in total protein (bacteria),[1],decrease
CCCCCCCCCCCC(N)=O [Compound T3SI-26],inhibition of AvrPto secretion in Pst DC3000,[1],effectively inhibited
"CCCCCCCC/C=C\CCCCCCCCCCCC(=O)NO [Compound T3SI-24, (Z)—N-hydroxydocos-13-enamide]",abundance of AvrPto in total protein (bacteria),[1],decrease
"CCCCCCCC/C=C\CCCCCCCCCCCC(=O)NCC [Compound T3SI-16, N-ethyl-13(Z)-Docosenamide]",inhibition of AvrPto secretion in Pst DC3000,[1],effectively inhibited
CCCCCC/C=C\CCCCCCCC(N)=O [Compound T3SI-6],abundance of AvrPto in total protein (bacteria),[1],decrease
"C=CCCCCCCCCCCCC(N)=O [Compound T3SI-12, 13-Tetradecenoic acid amide]",inhibition of AvrPto secretion in Pst DC3000,[1],effectively inhibited
"CCCCCCCC/C=C/CCCCCCCCCCCC(N)=O [Compound T3SI-2, (E)-13-docosenamide]",inhibition of AvrPto secretion in Pst DC3000,[1],effectively inhibited
"CCCCCCCC/C=C\CCCCCCCCCCCC(=O)NCCO [Compound T3SI-18, N-(2-hydroxyethyl)-13(Z)-Docosenamide]",inhibition of AvrPto secretion in Pst DC3000,[1],effectively inhibited
"CCCCCCCCc1ccc(CCCCCCCCCCCC(N)=O)cc1 [Compound T3SI-22, 12-(4-octylphenyl)dodecanamide]",abundance of AvrPto in total protein (bacteria),[1],decrease
"CCCCCCCC/C=C\CCCCCCCCCCCCNC(N)=O [Compound T3SI-14, N-(13Z)-13-Docosen-1-ylurea]",inhibition of AvrPto secretion in Pst DC3000,[1],effectively inhibited
CCCCCCCCCCCCCCCCCC(N)=O [Compound T3SI-8],inhibition of AvrPto secretion in Pst DC3000,[1],effectively inhibited
